The structures appear in SMILES notation. Bounds are passed on as bounds.

Here are results for 15 molecules from US20230117470A1, “SUBSTITUTED PYRAZOLE COMPOUNDS AS TOLL RECEPTOR INHIBITORS” (BRISTOL-MYERS SQUIBB COMPANY, priority 2019, published 2023).

Assay type in all cases: cell-based
The target in one assay is T1, human TLR7 (Homo sapiens, UniProt Q9NYK1).
T1 construct: host or cells: HEK-Blue cells
T1 sequence (Q9NYK1 27-1049): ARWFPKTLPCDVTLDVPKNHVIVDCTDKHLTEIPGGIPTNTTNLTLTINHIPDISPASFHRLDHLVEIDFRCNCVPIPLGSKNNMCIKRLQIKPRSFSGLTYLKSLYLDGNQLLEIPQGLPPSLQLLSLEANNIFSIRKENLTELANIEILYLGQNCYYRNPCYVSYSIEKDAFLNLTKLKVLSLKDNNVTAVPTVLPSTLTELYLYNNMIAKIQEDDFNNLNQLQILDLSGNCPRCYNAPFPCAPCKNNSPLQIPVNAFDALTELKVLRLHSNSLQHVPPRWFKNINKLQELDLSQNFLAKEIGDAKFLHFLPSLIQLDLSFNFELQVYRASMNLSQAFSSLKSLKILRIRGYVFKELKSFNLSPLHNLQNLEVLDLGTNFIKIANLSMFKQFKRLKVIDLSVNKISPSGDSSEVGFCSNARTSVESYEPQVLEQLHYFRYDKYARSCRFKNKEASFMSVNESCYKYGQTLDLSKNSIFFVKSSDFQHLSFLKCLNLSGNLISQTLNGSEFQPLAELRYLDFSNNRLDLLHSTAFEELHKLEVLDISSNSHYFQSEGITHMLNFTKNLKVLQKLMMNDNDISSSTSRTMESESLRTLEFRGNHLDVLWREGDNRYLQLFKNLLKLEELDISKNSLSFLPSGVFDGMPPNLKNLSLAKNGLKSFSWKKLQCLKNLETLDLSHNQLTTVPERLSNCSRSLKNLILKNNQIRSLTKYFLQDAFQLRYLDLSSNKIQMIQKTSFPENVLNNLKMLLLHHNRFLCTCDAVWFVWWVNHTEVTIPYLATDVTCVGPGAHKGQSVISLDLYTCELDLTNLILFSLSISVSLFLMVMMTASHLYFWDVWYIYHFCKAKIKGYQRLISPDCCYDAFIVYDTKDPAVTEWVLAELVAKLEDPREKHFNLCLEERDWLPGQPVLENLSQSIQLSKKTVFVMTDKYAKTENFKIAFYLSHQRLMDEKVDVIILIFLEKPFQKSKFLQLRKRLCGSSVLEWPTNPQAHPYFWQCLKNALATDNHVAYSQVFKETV
The assay can be described thus: TLR7 inhibition reporter assay (HEK-Blue cells, SEAP reporter, gardiquimod stimulation). The following applies: HEK-Blue cells overexpressing human TLR7, SEAP reporter, gardiquimod 7.5 μM. In short, it runs like this: (§1)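 Percent inhibition of agonist-induced SEAP, set between agonist+DMSO wells and known-inhibitor wells, after 22 h at 37° C. Compounds (0.05 nM-50 μM final) were added 30 min at room temperature before ligand: gardiquimod 7.5 μM for TLR7, R848 15.9 μM for TLR8, ODN2006 5 nM for TLR9. Human receptors overexpressed in HEK-Blue reporter cells.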
In general terms: A reporter such as luciferase makes a cellular process visible.

Another assay concerns the target T2, human TLR8 (Homo sapiens, UniProt Q9NR97).
T2 construct: host or cells: HEK-Blue cells
T2 sequence (Q9NR97 27-1041): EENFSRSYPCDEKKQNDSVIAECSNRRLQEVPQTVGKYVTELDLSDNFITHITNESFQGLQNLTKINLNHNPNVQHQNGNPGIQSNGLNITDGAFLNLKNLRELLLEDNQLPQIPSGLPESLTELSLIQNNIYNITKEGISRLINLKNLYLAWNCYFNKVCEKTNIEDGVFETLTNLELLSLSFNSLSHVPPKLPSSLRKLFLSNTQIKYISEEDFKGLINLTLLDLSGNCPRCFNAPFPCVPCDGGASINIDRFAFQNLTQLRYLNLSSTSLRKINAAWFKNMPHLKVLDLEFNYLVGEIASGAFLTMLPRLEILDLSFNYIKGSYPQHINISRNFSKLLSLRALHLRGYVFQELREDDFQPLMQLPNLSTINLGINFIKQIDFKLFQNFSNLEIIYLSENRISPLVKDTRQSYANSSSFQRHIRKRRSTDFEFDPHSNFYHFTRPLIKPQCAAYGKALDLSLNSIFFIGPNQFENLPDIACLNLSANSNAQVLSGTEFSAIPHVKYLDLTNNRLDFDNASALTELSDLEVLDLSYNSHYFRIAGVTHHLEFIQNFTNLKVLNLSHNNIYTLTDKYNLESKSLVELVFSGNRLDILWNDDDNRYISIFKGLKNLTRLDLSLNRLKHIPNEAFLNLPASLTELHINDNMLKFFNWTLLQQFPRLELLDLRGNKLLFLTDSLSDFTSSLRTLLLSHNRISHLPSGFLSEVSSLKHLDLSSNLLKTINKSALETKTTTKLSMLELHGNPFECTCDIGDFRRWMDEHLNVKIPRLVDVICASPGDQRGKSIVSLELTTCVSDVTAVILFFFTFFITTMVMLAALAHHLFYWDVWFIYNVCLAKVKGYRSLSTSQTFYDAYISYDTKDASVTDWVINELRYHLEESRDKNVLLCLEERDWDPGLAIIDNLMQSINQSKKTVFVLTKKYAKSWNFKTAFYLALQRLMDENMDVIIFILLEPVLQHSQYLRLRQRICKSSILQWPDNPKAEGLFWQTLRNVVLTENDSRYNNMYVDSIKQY
The assay can be described thus: TLR8 inhibition reporter assay (HEK-Blue cells, SEAP reporter, R848 stimulation). As to conditions: HEK-Blue cells overexpressing human TLR8, SEAP reporter, R848 15.9 μM. In short, it runs like this:
as §1

The target in the next assay is T3, human TLR9 (Homo sapiens, UniProt Q9NR96).
T3 construct: host or cells: HEK-Blue cells
T3 sequence (Q9NR96 26-1032): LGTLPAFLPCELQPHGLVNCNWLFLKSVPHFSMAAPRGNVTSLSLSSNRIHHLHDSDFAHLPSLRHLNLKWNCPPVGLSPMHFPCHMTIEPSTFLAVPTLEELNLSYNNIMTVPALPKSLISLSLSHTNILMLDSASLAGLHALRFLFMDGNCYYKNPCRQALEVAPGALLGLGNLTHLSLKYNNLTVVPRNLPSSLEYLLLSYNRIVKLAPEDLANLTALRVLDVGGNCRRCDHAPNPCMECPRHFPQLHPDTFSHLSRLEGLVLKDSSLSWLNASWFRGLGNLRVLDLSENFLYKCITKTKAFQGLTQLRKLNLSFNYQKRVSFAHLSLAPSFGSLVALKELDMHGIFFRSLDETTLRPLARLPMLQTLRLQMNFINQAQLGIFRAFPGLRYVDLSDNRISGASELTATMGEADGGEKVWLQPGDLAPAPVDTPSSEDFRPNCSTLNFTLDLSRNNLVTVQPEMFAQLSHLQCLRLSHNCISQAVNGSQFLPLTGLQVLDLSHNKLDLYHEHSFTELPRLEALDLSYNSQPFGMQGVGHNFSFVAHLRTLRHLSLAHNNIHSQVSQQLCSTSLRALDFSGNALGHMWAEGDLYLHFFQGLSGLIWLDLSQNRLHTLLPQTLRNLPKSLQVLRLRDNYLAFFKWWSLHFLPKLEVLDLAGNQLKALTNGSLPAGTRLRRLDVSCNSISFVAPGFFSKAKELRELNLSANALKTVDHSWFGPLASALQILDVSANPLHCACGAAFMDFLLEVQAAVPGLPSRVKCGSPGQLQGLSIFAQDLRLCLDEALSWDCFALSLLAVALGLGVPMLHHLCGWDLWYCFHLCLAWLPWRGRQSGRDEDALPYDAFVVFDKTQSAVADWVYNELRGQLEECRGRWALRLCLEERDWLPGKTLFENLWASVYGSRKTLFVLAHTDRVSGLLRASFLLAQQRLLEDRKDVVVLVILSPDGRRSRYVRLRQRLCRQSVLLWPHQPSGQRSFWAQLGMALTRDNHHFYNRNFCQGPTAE
Briefly: TLR9 inhibition reporter assay (HEK-Blue cells, SEAP reporter, ODN2006 stimulation). The following applies: HEK-Blue cells overexpressing human TLR9, SEAP reporter, ODN2006 5 nM. In short, it runs like this:
as §1

As a reminder, the IC50 is the midpoint of a concentration-inhibition curve. Higher therefore signals a need for much substance. Regarding `COc1cc(-c2[nH]nc(-c3cnc(C4CCN(C5CCC5)CC4)cn3)c2C(C)C)cn2ncnc12` [Example 387], the results for the IC50 on human TLR7, against human TLR8 and against human TLR9 were 25.2 nM, 43.9 nM and 11500 nM, respectively.

On to `COc1c(C)c(-c2[nH]nc(-c3ccc(C4CCN(CC5CCOCC5)CC4)cn3)c2C(C)C)cn2ncnc12` [Example 388], for which the results for the IC50 at human TLR7, against human TLR8 and against human TLR9 were 22.4 nM, 37.4 nM and 16100 nM, respectively.

Take `COc1cc(-c2[nH]nc(-c3ccc(C4CCN(CC(=O)N(C)C)CC4)cn3)c2C(C)C)cn2ncnc12` [Example 389, 2-(4-(6-(4-isopropyl-5-(8-methoxy-[1,2,4]triazolo[1,5-a]pyridin-6-yl)-1H-pyrazol-3-yl)pyridin-3-yl)piperidin-1-yl)-N,N-dimethylacetamide]: the IC50 against human TLR7 stood at 50.3 nM; against human TLR8, 168 nM; against human TLR9 it was 37100 nM.

With `Cc1cc(-c2[nH]nc(-c3ncc(C4CCN(CC(C)(C)O)CC4)cn3)c2C(C)C)cn2ncnc12` [Example 390], the IC50 was 93.6 nM against human TLR7, 481 nM against human TLR8 and greater than 50000 nM against human TLR9.

For `COc1cc(-c2[nH]nc(-c3ccc(C4CCN(CC(C)(C)O)CC4)cn3)c2C(C)C)cn2ncnc12` [Example 391], the IC50 against human TLR7 is 102 nM; against human TLR8 it was 118 nM; at human TLR9, greater than 50000 nM.

For the molecule `COc1cc(-c2[nH]nc(-c3ccc(C4CCN(CCS(C)(=O)=O)CC4)cn3)c2C(C)C)cn2ncnc12` [Example 392], the IC50 against human TLR7 was 241 nM; against human TLR8, 404 nM; at human TLR9 it was greater than 50000 nM.

Consider `COc1cc(-c2[nH]nc(-c3ccc(C4CCN(CC(N)=O)CC4)cn3)c2C(C)C)cn2ncnc12` [Example 393], for which the IC50 against human TLR7 was 77.6 nM; at human TLR8, 140 nM; on human TLR9 it was greater than 50000 nM.

Turning to `COc1cc(-c2[nH]nc(-c3ccc(C4CCN(CC#N)CC4)cn3)c2C(C)C)cn2ncnc12` [Example 394], the IC50 was 154 nM against human TLR7, 529 nM against human TLR8 and greater than 50000 nM on human TLR9.

In the case of `COCCN1CCC(c2cnc(-c3n[nH]c(-c4cc(OC)c5ncnn5c4)c3C(C)C)cn2)CC1` [Example 396], the values for the IC50 on human TLR7, at human TLR8 and against human TLR9 were 102 nM, 53.9 nM and greater than 50000 nM, respectively.

Consider `COc1cc(-c2[nH]nc(-c3cnc(C4CCN(CCS(C)(=O)=O)CC4)cn3)c2C(C)C)cn2ncnc12` [Example 397], for which the IC50 was 221 nM against human TLR7, 463 nM against human TLR8 and greater than 50000 nM against human TLR9.

As to `COc1cc(-c2[nH]nc(-c3cnc(C4CCN(CCF)CC4)cn3)c2C(C)C)cn2ncnc12` [Example 398], the values for the IC50 against human TLR7, against human TLR8 and against human TLR9 were 137 nM, 365 nM and greater than 50000 nM, respectively.

Regarding `COc1cc(-c2[nH]nc(-c3cnc(C4CCN(CCCF)CC4)cn3)c2C(C)C)cn2ncnc12` [Example 399], the results for the IC50 against human TLR7, at human TLR8 and at human TLR9 were 126 nM, 132 nM and greater than 50000 nM, respectively.

`CNC(=O)CN1CCC(c2cnc(-c3n[nH]c(-c4cc(OC)c5ncnn5c4)c3C(C)C)cn2)CC1` [Example 400]: the IC50 is 13.5 nM on human TLR7, 15.9 nM against human TLR8 and 9250 nM against human TLR9.

Turning to `COc1cc(-c2[nH]nc(-c3cnc(C4CCN(CC(=O)N(C)C)CC4)cn3)c2C(C)C)cn2ncnc12` [Example 401], the IC50 at human TLR7 is 36.9 nM; at human TLR8, 35.7 nM; at human TLR9 it was 13500 nM.

For `COc1cc(-c2[nH]nc(-c3ccc(C4CCN(C(=O)CN(C)C)CC4)cn3)c2C(C)C)cn2ncnc12` [Example 402, 2-(dimethylamino)-1-(4-(6-(4-isopropyl-5-(8-methoxy-[1,2,4]triazolo[1,5-a]pyridin-6-yl)-1H-pyrazol-3-yl)pyridin-3-yl)piperidin-1-yl)ethan-1-one], the IC50 was 35.1 nM on human TLR7, 297 nM on human TLR8 and greater than 50000 nM on human TLR9.
